From US20240424002A1, “METHODS AND COMPOSITIONS FOR TREATING MELANOMA” (THE REGENTS OF THE UNIVERSITY OF CALIFORNIA, priority 2021, published 2024)
“Also recorded” adds a separate entry of the source.

Legend:
M249-VSR sublines = experiment: Viability assay for inducing and protecting from ferroptosis; type: cell-based, human; settings: added in combination with RSL3; CellTiter-Glo 24 hr after treatment; FIG. 7B-C / 24B-C
Protocol: 6000 cells were seeded per well in 96-well plates and treated with ferroptosis inducing agents in combination with vehicle, GSH (Sigma, G4376), Trolox (Acros Organics, 218940010) or DFO (Sigma, D9533) next day. CellTiter-Glo luminescence was assessed 24 hr after treatment. For quantification, all values are normalized to vehicle conditions. Resistance cells were maintained in full dose of MAPK inhibitors throughout the treatments to keep the BRAF amplifications.

[1] = tested on: SC2 cells (M249-VSR HSR subclone); experiment: FISH count of HSRs per cell after long-term DNA-PK inhibition; type: cell-based, human; settings: 5 μM NU7026 for three months vs DMSO; FIG. 2G
Protocol: (§1) Cells were blocked at metaphases by adding colcemid (KaryoMax, Thermo Fisher Scientific) at a final concentration of 0.05 μg/ml followed by incubation at 37° C. for 6-8 hours. Cells were then fixed using methanol:acetic acid (3:1). FISH slides were prepared by dropping fixed cells in a humid environment following the manufacture's protocol provided by Cytotest and Empire Genomics. FFPE xenograft tumor FISH slides were prepared by pepsin digestion followed by similar procedures of cell line FISH. Colored FISH images were taken and processed using confocal microscope Leica TCS SP8 X. Karyotype categorizations were based on the guidelines in FIG. 8. The fractions under certain images represent the number of cases for corresponding karyotype divided by total number of cases analyzed. If not otherwise mentioned, scale bars in FISH images represent 10 μm. Centromere probe names are abbreviated as CEN-x. DM numbers were quantified by directly counting the number of features in the FISH images or by using ecDNA quantification tool EcSeg (93). HSR lengths were quantified by dividing the probe area by chromosomal DAPI area in metaphases. The staining areas were calculated using ImageJ v1.53a. Cells fixed by the same procedure were also used for G-banding. G-banded metaphase spreads were photographed using 80i Nikon Microscope and Applied Spectral Imaging (ASI) Karyotyping system. […]

[2] = tested on: SC4 DM+ cells (M249-VSR single-cell-derived clone); experiment: FISH assessment of HSRs after long-term DNA-PK inhibition; type: cell-based, human; settings: 5 μM NU7026 for 107 days vs DMSO 90 days; FIG. 2E
Protocol: as §1

[3] = tested on: M249-P, M249-VSR-DM and M249-VSR-HSR cells; experiment: Dose response curve of ferroptosis inducing agents, viability by CellTiter-Glo; type: cell-based, human; settings: for sensitivity to RSL3 of M249-VSR after drug withdrawal: after VEM+SEL withdrawal, reduced BRAF copy number
Protocol: (§2) The dose response curves of ferroptosis inducing agents RSL3, Erastin and Ferroptocide were performed by seeding appropriate number of cells on day 0 in 96-well plates, […] luminescent assay. If not otherwise mentioned, resistance cells were maintained in full dose of MAPK inhibitors throughout the dose response experiments to keep the BRAF amplifications. Seeding density for each cell line was determined by using the same assay and the same experimental length with multiple cell number titrations. The dose series were generated by serial dilutions. All drugs used for dose response curves were dissolved in DMSO. DMSO toxicity was performed on the cell lines to determine the appropriate DMSO concentration (0.5%), which was used in all doses. The resulting values from viability assays were normalized to the zero-dose condition after subtracting background (wells with no cells). The curve fittings were performed by using three-parameter model in dre v3.0-1 R package (119).

[4] = tested on: M229P/R, M238P/R and SKMEL28P/R cell lines; settings: resistance through upregulation of RTKs, dedifferentiation; cited from earlier work
[5] = tested on: A375-DTR cells vs parental; experiment: Dose response curve of ferroptosis inducing agents, viability by CellTiter-Glo; type: cell-based
Protocol: as §2

[6] = tested on: Mel888-DTR cells vs parental; experiment: as above; type: cell-based
Protocol: as §2

[7] = tested on: M249-P and M249-VSR-DM cells; experiment: Lipid ROS measurement by flow cytometry; type: cell-based, human; settings: FIG. 23A / 25A

Compound: N[C@@H](CCC(=O)N[C@@H](CS)C(=O)NCC(=O)O)C(=O)O [GSH, reduced glutathione]
- rescue of RSL3-induced cell death (percent viable cells) (M249-VSR sublines): cell death can be rescued

Compound: O=c1cc(N2CCOCC2)oc2c1ccc1ccccc12 [NU7026]
- percentage of cells with multiple HSRs [1]: lower percentage of multiple HSRs
- frequency of cells displaying HSR integrations [2]: decreased the frequency of cells displaying HSR integrations

Compound: COC(=O)c1ccc([C@@H]2c3[nH]c4ccccc4c3C[C@@H](C(=O)OC)N2C(=O)CCl)cc1 [RSL3]
- sensitivity to RSL3 of M249-VSR-DM and -HSR compared to M249-P ([3]; FIG. 7A, 72 hr treatment): substantially more sensitive
- sensitivity to RSL3 of M249-VSR after drug withdrawal ([3]; FIG. 7A, 72 hr treatment): lose sensitivity reverting to levels closer to the parental cells
- sensitivity to RSL3 of M249-VSR-DM and -HSR compared to M249-P ([3]; FIG. 24A, 24 hr treatment, CellTiter-Glo, resistant cells kept in full dose MAPK inhibitors): substantially more sensitive
- sensitivity to RSL3 of M249-VSR after drug withdrawal ([3]; FIG. 24A, 24 hr treatment): lose sensitivity reverting to levels closer to the parental cells
- sensitivity to RSL3 of resistant vs parental lines [4]: increased sensitivity
- RSL3 sensitivity of A375-DTR compared to parental ([5]; FIG. 7A, 72 hr treatment): increased RSL3 sensitivity
- RSL3 sensitivity of A375-DTR compared to parental ([5]; FIG. 24A, 24 hr treatment): increased RSL3 sensitivity
- RSL3 sensitivity of Mel888-DTR compared to parental ([6]; FIG. 7A, 72 hr treatment): increased RSL3 sensitivity
- RSL3 sensitivity of Mel888-DTR compared to parental ([6]; FIG. 24A, 24 hr treatment): increased RSL3 sensitivity
- lipid ROS levels upon RSL3 treatment ([7]; 1 μM RSL3, 24 hr, C11-BODIPY dye): increased lipid ROS levels; also recorded: increase in lipid ROS levels

Compound: Cc1c(C)c2c(c(C)c1O)CCC(C)(C(=O)O)O2 (stereo not shown) [Trolox]
- rescue of RSL3-induced cell death (percent viable cells) (M249-VSR sublines): cell death can be rescued
- protection against RSL3-induced lipid ROS ([7]; 150 μM Trolox with 1 μM RSL3, 24 hr): protected; also recorded: protects against RSL3-induced lipid ROS

Compound: C[C@@H]1CC[C@@]23C[C@H](O)C(=O)[C@@]2(O)[C@]1(C)[C@H](OC(=O)CCl)C[C@@H](C1=CCn2c(=O)n(-c4ccccc4)c(=O)n2C1)[C@@H]3C [ferroptocide]
- sensitivity of BRAF-amplified M249 dual MAPKi-resistant cells compared to parental ([3]; FIG. 23B, M249-VSR-DM and -HSR, 72 hr treatment, CellTiter-Glo): sensitive
